This note sets out measurements from ChEMBL document CHEMBL6109066, “Synthesis, cytotoxic evaluation, and molecular docking of novel zerumbone oxime esters and azazerumbone derivatives” (Bioorg Med Chem Lett, 2025).

As a reminder, the IC50 is the concentration that gives 50% inhibition. A higher IC50 goes with a need for much substance.

What all share (type): functional, cell-based
Assay [1] relates to HL-60. The assay can be described thus: Cytotoxicity against human HL-60 cells.
Assay [2] concerns HepG2. The assay is described as follows: Cytotoxicity against human HepG2 cells.
For assay [3], the system named is A549. The assay can be described thus: Cytotoxicity against human A549 cells.
Assay [4] concerns AGS. The assay can be described thus: Cytotoxicity against human AGS cells.

≈ marks a conversion by molar mass, not a printed value.

For the molecule `C/C1=C\CC(C)(C)/C=C/C(=O)N/C(C)=C/CC1`, the IC50 in assay [1] was 9.84 µg/mL (≈ 42.2 µM); in assay [2], 27.4 µg/mL (≈ 117 µM); in assay [3], 56.9 µg/mL (≈ 244 µM); in assay [4] it was 39.6 µg/mL (≈ 170 µM).

Take `C/C1=C\CC(C)(C)/C=C/C(=O)[C@H](C)[C@H](Nc2ccc(Cl)cc2)CC1`: the IC50 is 53.7 µg/mL (≈ 155 µM) in assay [1], 56.2 µg/mL (≈ 163 µM) in assay [2], more than 100 µg/mL in assay [3] and more than 100 µg/mL in assay [4].

For `Cc1c2ccncc2c(C)c2c1[nH]c1ccccc12` [ELLIPTECINE], the IC50 in assay [1] was found to be 0.35 µg/mL (≈ 1.42 µM); in assay [2], 0.33 µg/mL (≈ 1.34 µM); in assay [3], 0.39 µg/mL (≈ 1.58 µM); in assay [4] it was 0.4 µg/mL (≈ 1.62 µM).

Consider `COc1cc(C(=O)O/N=C2/C=C/C(C)(C)C/C=C(\C)CC/C=C/2C)ccc1OC(C)=O`, for which the IC50 in assay [1] is 10.7 µg/mL (≈ 25.2 µM); in assay [2] it was 7.41 µg/mL (≈ 17.4 µM); in assay [3], 15.6 µg/mL (≈ 36.8 µM); in assay [4], 10 µg/mL (≈ 23.5 µM).

For the molecule `CC(=O)O/N=C1/C=C/C(C)(C)C/C=C(\C)CC/C=C/1C`, the IC50 turned out to be 11 µg/mL (≈ 39.9 µM) in assay [1], 18.5 µg/mL (≈ 67.3 µM) in assay [2], 30.8 µg/mL (≈ 112 µM) in assay [3] and 23.8 µg/mL (≈ 86.3 µM) in assay [4].

For `CC(=O)Oc1ccc(C(=O)O/N=C2/C=C/C(C)(C)C/C=C(\C)CC/C=C/2C)cc1`, the IC50 in assay [1] was 3.55 µg/mL (≈ 8.98 µM); in assay [2], 5.87 µg/mL (≈ 14.8 µM); in assay [3], 10.9 µg/mL (≈ 27.5 µM); in assay [4], 9.37 µg/mL (≈ 23.7 µM).

For `C/C1=C\CC(C)(C)/C=C/C(=N/OC(=O)c2cccc([N+](=O)[O-])c2)C(/C)=C/CC1`, the IC50 in assay [1] was 29.8 µg/mL (≈ 77.8 µM); in assay [2], 30.4 µg/mL (≈ 79.5 µM); in assay [3], 58.9 µg/mL (≈ 154 µM); in assay [4], 41.8 µg/mL (≈ 109 µM).

As to `C/C1=C\CC(C)(C)/C=C/C(=O)/C(C)=C/CC1` [ZERUMBONE], the IC50 was 0.86 µg/mL (≈ 3.94 µM) in assay [1], 0.93 µg/mL (≈ 4.26 µM) in assay [2], 1.03 µg/mL (≈ 4.72 µM) in assay [3] and 1.11 µg/mL (≈ 5.08 µM) in assay [4].

For the molecule `C/C1=C\CC(C)(C)/C=C/C(=N/OC(=O)[C@H](NC(=O)OC(C)(C)C)C(C)C)C(/C)=C/CC1`, the IC50 in assay [1] is 3.88 µg/mL (≈ 8.97 µM); in assay [2], 1.59 µg/mL (≈ 3.68 µM); in assay [3] it was 2.01 µg/mL (≈ 4.65 µM); in assay [4], 3.21 µg/mL (≈ 7.42 µM).

As to `C/C1=C\CC(C)(C)/C=C/C(=N/O)C(/C)=C/CC1`, the half-maximal inhibitory concentration (IC50) in assay [1] was 45.5 µg/mL (≈ 195 µM); in assay [2] it was more than 100 µg/mL; in assay [3] it was more than 100 µg/mL; in assay [4], more than 100 µg/mL.

`C/C1=C\CC(C)(C)/C=C/C(=N/OC(=O)c2cccc(Cl)c2)C(/C)=C/CC1`: the IC50 in assay [1] was 10.6 µg/mL (≈ 28.5 µM); in assay [2], 14.3 µg/mL (≈ 38.4 µM); in assay [3] it was 52.9 µg/mL (≈ 142 µM); in assay [4] it was 38.3 µg/mL (≈ 103 µM).

Consider `CC(=O)N1C(=O)/C=C/C(C)(C)C/C=C(\C)CC/C=C/1C`, for which the IC50 in assay [1] worked out at 4.5 µg/mL (≈ 16.3 µM); in assay [2], 32.9 µg/mL (≈ 120 µM); in assay [3], 44.1 µg/mL (≈ 160 µM); in assay [4], 9.02 µg/mL (≈ 32.8 µM).

On to `COc1ccc(C(=O)O/N=C2/C=C/C(C)(C)C/C=C(\C)CC/C=C/2C)cc1`, for which the IC50 in assay [1] was 1.43 µg/mL (≈ 3.89 µM); in assay [2], 1.42 µg/mL (≈ 3.86 µM); in assay [3], 1.52 µg/mL (≈ 4.14 µM); in assay [4], 1.93 µg/mL (≈ 5.25 µM).

`C/C1=C\CC(C)(C)/C=C/C(=N/OC(=O)c2ccc(Br)cc2)C(/C)=C/CC1`: the IC50 was 15.4 µg/mL (≈ 36.9 µM) in assay [1], 12.2 µg/mL (≈ 29.4 µM) in assay [2], 40.8 µg/mL (≈ 97.9 µM) in assay [3] and 27.3 µg/mL (≈ 65.6 µM) in assay [4].

On to `C\C1=C/CC/C(C=O)=C/CC(C)(C)/C=C/C1=N/O`, for which the IC50 was 37.7 µg/mL (≈ 152 µM) in assay [1], 64.1 µg/mL (≈ 259 µM) in assay [2], 91.8 µg/mL (≈ 371 µM) in assay [3] and 53.9 µg/mL (≈ 218 µM) in assay [4].

As for `C#CCN[C@@H]1CC/C(C)=C/CC(C)(C)/C=C/C(=O)[C@@H]1C`, the IC50 in assay [1] turned out to be 9.59 µg/mL (≈ 35.1 µM); in assay [2], 6.52 µg/mL (≈ 23.8 µM); in assay [3], 32.2 µg/mL (≈ 118 µM); in assay [4] it was 11.5 µg/mL (≈ 42 µM).

Take `C/C1=C\CC(C)(C)/C=C/C(=N/OC(=O)[C@H](NC(=O)OC(C)(C)C)C(C)(C)C)C(/C)=C/CC1`: the IC50 was found to be 0.41 µg/mL (≈ 0.918 µM) in assay [1], 1.15 µg/mL (≈ 2.57 µM) in assay [2], 1.37 µg/mL (≈ 3.07 µM) in assay [3] and 1.5 µg/mL (≈ 3.36 µM) in assay [4].

For `C/C1=C\CC(C)(C)/C=C/C(=N/OC(=O)c2ccc([N+](=O)[O-])cc2)C(/C)=C/CC1`, the IC50 in assay [1] was found to be 9.88 µg/mL (≈ 25.8 µM); in assay [2], 4.61 µg/mL (≈ 12.1 µM); in assay [3] it was 9.28 µg/mL (≈ 24.3 µM); in assay [4], 6.66 µg/mL (≈ 17.4 µM).

As for `C/C1=C\CC(C)(C)/C=C/C(=N/OC(=O)c2ccccc2O)C(/C)=C/CC1`, the IC50 amounted to 3.99 µg/mL (≈ 11.3 µM) in assay [1], 4.2 µg/mL (≈ 11.9 µM) in assay [2], 12 µg/mL (≈ 34 µM) in assay [3] and 9.04 µg/mL (≈ 25.6 µM) in assay [4].

As to `C/C1=C\CC(C)(C)/C=C/C(=N/OC(=O)CCl)C(/C)=C/CC1`, the IC50 in assay [1] was 9.03 µg/mL (≈ 29.1 µM); in assay [2], 37.5 µg/mL (≈ 121 µM); in assay [3], 46.1 µg/mL (≈ 149 µM); in assay [4], 44.6 µg/mL (≈ 144 µM).

`C/C1=C\CC(C)(C)/C=C/C(=N/OC(=O)c2ccccc2)C(/C)=C/CC1`: the IC50 amounted to 6.63 µg/mL (≈ 19.6 µM) in assay [1], 3.64 µg/mL (≈ 10.8 µM) in assay [2], 14.3 µg/mL (≈ 42.3 µM) in assay [3] and 10.5 µg/mL (≈ 31.3 µM) in assay [4].
